In ChEMBL document CHEMBL1138679, “Three-dimensional quantitative structure-activity relationship analysis of a set of Plasmodium falciparum dihydrofolate reductase inhibitors using a pharmacophore generation approach” (J Med Chem, 2004):

Biological target: Bifunctional dihydrofolate reductase-thymidylate synthase (Plasmodium falciparum K1, UniProt P13922)
Test: Inhibition constant against Plasmodium falciparum dihydrofolate reductase

Bifunctional dihydrofolate reductase-thymidylate synthase, sequence (P13922 whole entry): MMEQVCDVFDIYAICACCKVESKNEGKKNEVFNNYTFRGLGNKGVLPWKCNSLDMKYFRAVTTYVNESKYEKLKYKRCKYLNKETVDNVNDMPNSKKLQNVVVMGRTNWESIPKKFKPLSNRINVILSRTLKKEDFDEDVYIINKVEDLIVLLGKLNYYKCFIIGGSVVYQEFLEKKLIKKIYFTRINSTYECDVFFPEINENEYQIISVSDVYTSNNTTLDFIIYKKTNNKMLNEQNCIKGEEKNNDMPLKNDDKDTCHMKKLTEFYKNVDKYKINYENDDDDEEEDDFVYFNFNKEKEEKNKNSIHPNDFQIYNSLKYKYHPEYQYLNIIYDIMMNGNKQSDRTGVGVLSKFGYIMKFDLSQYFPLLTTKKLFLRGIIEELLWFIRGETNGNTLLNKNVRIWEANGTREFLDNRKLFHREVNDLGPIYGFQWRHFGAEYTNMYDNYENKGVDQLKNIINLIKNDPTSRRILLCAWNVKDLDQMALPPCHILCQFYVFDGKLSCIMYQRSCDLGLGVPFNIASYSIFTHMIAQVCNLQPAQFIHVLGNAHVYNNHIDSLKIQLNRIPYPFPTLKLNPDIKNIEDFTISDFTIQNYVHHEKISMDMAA

Question: With CC1(C)N=C(N)N=C(N)N1OCCCOc1cc(Cl)c(Cl)cc1Cl as the compound, how does the Ki read?
Answer: 1.1 nM

Question: For Cc1cc2nc3n(c2cc1C)C(C)(C)NC(N)=N3, which Ki is on record?
Answer: 180 nM

Question: How did the Ki turn out when N=C(NO)c1ccc(Oc2cc(Cl)cc(Cl)c2)c([N+](=O)[O-])c1 was run?
Answer: 1700 nM

Question: Cc1nc(N)nc(N)c1-c1ccc(Cl)cc1 was tested. Which Ki did it give?
Answer: 0.84 nM

Question: Which Ki does the source give for COC(=O)CCCc1nc(N)nc(N)c1-c1ccccc1 here?
Answer: 10 nM

Question: How did the Ki turn out when Cc1nc(N)nc(N)c1-c1ccccc1 was run?
Answer: 110 nM

Question: With Nc1ncc(-c2cccc(Cl)c2)c(N)n1 as the compound, how does the Ki read?
Answer: 75 nM

Question: Which Ki does the source give for Nc1ncc(-c2ccccc2)c(N)n1 here?
Answer: 100 nM

Question: How did the Ki turn out when Nc1nc(N)c(-c2ccc(Cl)cc2)c(CCCc2ccccc2)n1 was run?
Answer: 0.74 nM

Question: For CCc1nc(N)nc(N)c1-c1ccc(C)cc1, which Ki is on record?
Answer: 1.1 nM

Question: How did the Ki turn out when CCc1nc(N)nc(N)c1-c1ccc(C(C)(C)C)cc1 was run?
Answer: 0.77 nM

Question: Which Ki does the source give for Nc1nc(N)c(-c2cccc(Cl)c2)c(CCCc2ccccc2)n1 here?
Answer: 42 nM

Question: Which Ki does the source give for Cc1nc(N)nc(N)c1-c1cccc(Cl)c1 here?
Answer: 83 nM

Question: CCc1nc(N)nc(N)c1-c1ccc(OCc2ccc(Cl)cc2Cl)c(OC)c1 was tested. Which Ki did it give?
Answer: 9.6 nM

Question: Which Ki does the source give for CCc1nc(N)nc(N)c1-c1ccccc1 here?
Answer: 100 nM

Question: For CCOc1c(Br)cc(-c2c(N)nc(N)nc2CC)cc1Br, which Ki is on record?
Answer: 37 nM

Question: Which Ki does the source give for CCc1nc(N)nc(N)c1-c1ccc(Cl)cc1Cl here?
Answer: 0.92 nM

Question: Which Ki does the source give for Nc1nc(N)c(-c2cccc(Cl)c2)c(CCOCCCOc2ccccc2)n1 here?
Answer: 13 nM

Question: With COC(=O)CCCc1nc(N)nc(N)c1-c1ccc(Cl)cc1 as the compound, how does the Ki read?
Answer: 0.14 nM

Question: For COc1ccc(CCCc2nc(N)nc(N)c2-c2cccc(Cl)c2)cc1, which Ki is on record?
Answer: 11 nM

Question: With CCc1nc(N)nc(N)c1-c1cccc(Cl)c1 as the compound, how does the Ki read?
Answer: 72 nM

Question: For Nc1ncc(-c2ccc(Cl)cc2)c(N)n1, which Ki is on record?
Answer: 0.74 nM

Question: CCc1nc(N)nc(N)c1-c1ccc(-c2ccccc2)cc1 was tested. Which Ki did it give?
Answer: 90 nM

Question: Which Ki does the source give for CCc1nc(N)nc(N)c1-c1ccc(OC)cc1 here?
Answer: 1.3 nM

Question: With CCc1nc(N)nc(N)c1-c1ccc(Br)cc1 as the compound, how does the Ki read?
Answer: 0.84 nM

Question: Which Ki does the source give for CCc1nc(N)nc(N)c1-c1cccc(OC)c1 here?
Answer: 36 nM

Question: With C/N=C(\S)NNC(=O)c1cccn(Cc2cccc(Cl)c2)c1=O as the compound, how does the Ki read?
Answer: 900 nM

Question: Which Ki does the source give for Cc1[nH]c(N)cc2nc3ccccc3c1-2 here?
Answer: 2300 nM

Question: How did the Ki turn out when N/C(=N/O)c1ccc(Oc2c(Cl)cncc2Cl)cc1 was run?
Answer: 930 nM

Question: CCCCCCc1nc(N)nc(N)c1-c1ccccc1 was tested. Which Ki did it give?
Answer: 10 nM

Question: With CCc1nc(N)nc(N)c1-c1ccc2c(c1)OCO2 as the compound, how does the Ki read?
Answer: 72 nM

Question: Which Ki does the source give for CC1(C)N=C(N)N=C(N)N1c1ccc(Br)cc1 here?
Answer: 1.2 nM

Question: CC1(C)N=C(N)N=C(N)N1c1ccccc1 was tested. Which Ki did it give?
Answer: 140 nM

Question: CC1(C)N=C(N)N=C(N)N1c1ccc(F)cc1 was tested. Which Ki did it give?
Answer: 170 nM

Question: For NC1=NCN(c2ccc(Cl)cc2)C(N)=N1, which Ki is on record?
Answer: 0.84 nM

Question: With NC1=NCN(c2ccccc2)C(N)=N1 as the compound, how does the Ki read?
Answer: 85 nM

Question: With NC1=NCN(c2ccc(F)cc2)C(N)=N1 as the compound, how does the Ki read?
Answer: 88 nM

Question: How did the Ki turn out when N=C(S)N/N=C/c1ccc(Oc2ncc(C(F)(F)F)cc2Cl)cc1 was run?
Answer: 9000 nM

Question: How did the Ki turn out when N=C(NO)c1ccc(CNC(=O)c2ccc(Cl)cc2)cc1 was run?
Answer: 1500 nM

Question: Which Ki does the source give for NNc1nc2ccccc2nc1NN here?
Answer: 8600 nM

Question: How did the Ki turn out when N/C(=N\O)c1cccc(CS(=O)(=O)c2ccc(Cl)cc2)c1 was run?
Answer: 800 nM

Question: C=CCNC(=S)NNC(=O)c1cccn(Cc2cccc(Cl)c2)c1=O was tested. Which Ki did it give?
Answer: 410 nM

Question: For COC(=O)c1sccc1-c1ccc(/C(C)=N/NC(N)=O)o1, which Ki is on record?
Answer: 20000 nM

Question: With N/N=C(\S)Nc1ccc(OCc2ccccc2)cc1 as the compound, how does the Ki read?
Answer: 2000 nM

Question: For C/C(=N\N=C(/N)S)c1ccc(Oc2c(Cl)cncc2Cl)cc1, which Ki is on record?
Answer: 1400 nM

Question: CC1(C)N=C(N)N=C(N)N1c1ccc(Cl)c(Cl)c1 [CHLORCYCLOGUANIL] was tested. Which Ki did it give?
Answer: 1.1 nM

Question: CC1(C)N=C(N)N=C(N)N1c1ccc(Cl)cc1 [CYCLOGUANIL] was tested. Which Ki did it give?
Answer: 1.1 nM

Question: Which Ki does the source give for CCc1nc(N)nc(N)c1-c1ccc(Cl)c(Cl)c1 [ETOPRINE] here?
Answer: 0.79 nM

Question: Which Ki does the source give for NC(=S)N/N=C/c1ccccc1 [PHENYLTHIOSEMICARBAZONE] here?
Answer: 31000 nM
